{"source": "patent US20130266676A1", "about": "“TERMINALIA CHEBULA COMPOSITIONS AND METHOD OF EXTRACTING SAME” (NATREON, INC., priority 2012, published 2013)", "key": {"[1]": {"tested_on": "cytotoxic T-lymphocyte (CTL)-mediated cytotoxicity", "settings": "cited from earlier work"}, "[2]": {"tested_on": "Smad pathway", "settings": "through inhibition of the Smad pathway; cited from earlier work"}, "[3]": {"target": "HIV rgp120 to CD4 (UniProt P01730+P04578)", "settings": "cited from earlier work"}, "[4]": {"tested_on": "K562 cells", "settings": "concentration-dependent; cited from earlier work"}, "[5]": {"settings": "compared with ascorbic acid, butylated hydroxyl toluene, alpha-tocopherol, arbutin and kojic acid; cited from earlier work"}, "[6]": {"tested_on": "human cervical carcinoma HeLa cells", "settings": "cited from earlier work"}, "[7]": {"tested_on": "stimulated human peripheral blood lymphocytes", "settings": "concentrations ten times above maximal effective concentration; cited from earlier work"}, "[8]": {"experiment": "Thermal stability during aqueous extraction at 80±5° C. (HPLC)", "format": "physicochemical", "settings": "different time points", "method": "In another experiment, fruit pericarp portions of T. Chebula (50 g) were pulverized and the resulting powder was extracted with distilled water (300 ml) for 12 hours, with a continuous stirring (400 RPM), separately at different temperatures 30±5° C., 40±5° C., 60±5° C. and 80±5° C. using a pressure reactor. Aliquots of the samples were withdrawn at different time intervals during extraction, spray dried and analyzed for bioactives (Chebulagic acid, Chebulinic acid and other LMwHTs) by HPLC (as discussed above). The results are incorporated in Tables 3-6. As used herein, “0 hour” extraction refers to “instant extraction,” which for the purpose of this disclosure means distilled water was added to the pulverized powder on a thermostatic water bath, stirred for 5 minutes and an aliquot of the sample withdrawn and analyzed."}, "[9]": {"settings": "rats; cited from earlier work"}, "[10]": {"tested_on": "MCF-7, S115, HOS-1, PC-3 and PNT1A cell lines", "settings": "cited from earlier work"}, "[11]": {"tested_on": "melanin", "settings": "compared with ascorbic acid, butylated hydroxyl toluene, alpha-tocopherol, arbutin and kojic acid; cited from earlier work"}, "[12]": {"tested_on": "HCT-15, COLO-205, MDA-MB-231, DU-145 and K562 cell lines", "settings": "cited from earlier work"}, "[13]": {"tested_on": "COX-1", "settings": "cited from earlier work"}, "[14]": {"tested_on": "5-LOX", "settings": "cited from earlier work"}, "[15]": {"target": "T1, COX-2 (Homo sapiens, UniProt P35354)", "T1 sequence (P35354 18-604)": "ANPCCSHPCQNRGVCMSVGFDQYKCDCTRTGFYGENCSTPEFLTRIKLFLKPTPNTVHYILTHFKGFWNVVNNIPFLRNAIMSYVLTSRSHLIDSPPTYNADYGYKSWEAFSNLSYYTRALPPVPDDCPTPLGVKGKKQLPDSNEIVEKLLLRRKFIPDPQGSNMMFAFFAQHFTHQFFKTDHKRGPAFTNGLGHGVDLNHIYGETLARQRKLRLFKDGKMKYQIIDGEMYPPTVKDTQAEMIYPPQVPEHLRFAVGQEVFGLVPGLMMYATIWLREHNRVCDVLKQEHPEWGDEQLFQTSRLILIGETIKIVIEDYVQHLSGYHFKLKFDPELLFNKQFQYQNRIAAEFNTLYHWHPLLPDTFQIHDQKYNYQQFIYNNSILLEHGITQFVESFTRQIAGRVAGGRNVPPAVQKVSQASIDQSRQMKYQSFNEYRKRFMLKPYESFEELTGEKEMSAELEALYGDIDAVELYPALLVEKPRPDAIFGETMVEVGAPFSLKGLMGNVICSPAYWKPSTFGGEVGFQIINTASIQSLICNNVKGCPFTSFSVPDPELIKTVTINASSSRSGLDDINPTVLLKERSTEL", "settings": "cited from earlier work"}, "[16]": {"tested_on": "collagen-induced arthritis", "settings": "mice; cited from earlier work"}, "[17]": {"tested_on": "PRMI-7951 melanoma cells", "settings": "cited from earlier work"}, "[18]": {"tested_on": "LPS-stimulated RAW 264.7", "settings": "cited from earlier work"}, "[19]": {"tested_on": "HSV-1", "settings": "noncytotoxic doses, A549 human lung cells; cited from earlier work"}, "[20]": {"tested_on": "HepG2 cells", "settings": "cited from earlier work"}}, "data": [{"smiles": "O=C(O)C[C@H](C(=O)O)[C@H]1c2c(cc(O)c(O)c2O)C(=O)O[C@@H]1C(=O)O", "note": "[chebulic acid]", "values": [{"measurement": "blocking of CTL-mediated cytotoxicity", "setting": "[1]", "value": "blocked"}]}, {"smiles": "O=C(O)CC1C(=O)OC2C(COC(=O)c3cc(O)c(O)c(O)c3)OC(OC(=O)c3cc(O)c(O)c(O)c3)C(OC(=O)c3cc(O)c(O)c4c3C1C(O)C(=O)O4)C2OC(=O)c1cc(O)c(O)c(O)c1", "note": "[Chebulinic acid, 1,3,6-tri-O-galloyl-2,4-chebuloyl-beta-D-glucose]", "values": [{"measurement": "antifibrotic activity", "setting": "[2]", "value": "antifibrotic activity"}, {"measurement": "blocking of binding of HIV rgp120 to CD4", "setting": "[3]", "value": "block the binding"}, {"measurement": "hemoglobin synthesis", "setting": "[4]", "value": "inhibited the hemoglobin synthesis"}, {"measurement": "DPPH radical scavenging activity versus reference antioxidants", "setting": "[5]", "value": "stronger"}, {"measurement": "anti-tumor properties", "setting": "[6]", "value": "anti-tumor properties"}, {"measurement": "toxicity to lymphocytes", "setting": "[7]", "value": "not toxic"}, {"measurement": "thermal stability", "setting": "[8]", "value": "thermolabile"}, {"measurement": "blood pressure effect", "setting": "[9]", "value": "blood pressure lowering effect"}, {"measurement": "growth inhibition", "setting": "[10]", "value": "growth inhibitory"}, {"measurement": "melanin inhibitory activity versus reference agents", "setting": "[11]", "value": "stronger"}]}, {"smiles": "O=C1OC[C@H]2OC(O)[C@H](O)[C@@H](O)[C@@H]2OC(=O)c2cc(O)c(O)c(O)c2-c2c(O)c(O)c3oc(=O)c4c(c(O)c(O)c5oc(=O)c2c3c54)-c2c1cc(O)c(O)c2O", "note": "(mixture of isomers) [punicalin]", "values": [{"measurement": "blocking of binding of HIV rgp120 to CD4", "setting": "[3]", "value": "block the binding"}, {"measurement": "toxicity to lymphocytes", "setting": "[7]", "value": "not toxic"}]}, {"smiles": "O=C(OC[C@H]1O[C@@H](OC(=O)c2cc(O)c(O)c(OC(=O)c3cc(O)c(O)c(O)c3)c2)[C@H](OC(=O)c2cc(O)c(O)c(OC(=O)c3cc(O)c(O)c(O)c3)c2)[C@@H](OC(=O)c2cc(O)c(O)c(OC(=O)c3cc(O)c(O)c(O)c3)c2)[C@@H]1OC(=O)c1cc(O)c(O)c(OC(=O)c2cc(O)c(O)c(O)c2)c1)c1cc(O)c(O)c(OC(=O)c2cc(O)c(O)c(O)c2)c1", "note": "[tannic acid]", "values": [{"measurement": "growth inhibition", "setting": "[10]", "value": "growth inhibitory"}]}, {"smiles": "O=C(O)CC1C(=O)OC2C3COC(=O)c4cc(O)c(O)c(O)c4-c4c(cc(O)c(O)c4O)C(=O)OC2C(OC(=O)c2cc(O)c(O)c4c2C1C(O)C(=O)O4)C(OC(=O)c1cc(O)c(O)c(O)c1)O3", "note": "[Chebulagic acid, beta-1-O-galloyl-2,4-chebuloyl-3,6-(R)-hexahydroxydiphenoyl-D-glucose]", "values": [{"measurement": "anti-proliferative activity", "setting": "[12]", "value": "anti-proliferative activity"}, {"measurement": "antifibrotic activity", "setting": "[2]", "value": "antifibrotic activity"}, {"measurement": "DPPH radical scavenging activity versus reference antioxidants", "setting": "[5]", "value": "stronger"}, {"measurement": "IC50", "setting": "[13]", "value": "15000 ± 288", "unit": "nM"}, {"measurement": "IC50", "setting": "[14]", "value": "2100 ± 57", "unit": "nM"}, {"measurement": "IC50", "setting": "[15]", "value": "920 ± 11", "unit": "nM"}, {"measurement": "onset and progression of collagen-induced arthritis", "setting": "[16]", "value": "suppress the onset and progression"}, {"measurement": "cytotoxicity", "setting": "[17]", "value": "cytotoxic properties"}, {"measurement": "thermal stability", "setting": "[8]", "value": "thermolabile"}, {"measurement": "anti-inflammatory effects", "setting": "[18]", "value": "potent anti-inflammatory effects"}, {"measurement": "inhibition of HSV-1 entry", "setting": "[19]", "value": "inhibit HSV-1 entry"}, {"measurement": "enhancement of cytotoxicity of doxorubicin", "setting": "[20]; HepG2 cells", "value": 20, "unit": "fold"}, {"measurement": "interaction with doxorubicin by Combination Index (CI), cell growth inhibition", "setting": "[20]", "value": "strong synergistic interaction"}, {"measurement": "melanin inhibitory activity versus reference agents", "setting": "[11]", "value": "stronger"}]}, {"smiles": "O=C1O[C@H]2[C@@H]3OC(=O)c4cc(O)c(O)c(O)c4-c4c(O)c(O)c5oc(=O)c6c(c(O)c(O)c7oc(=O)c4c5c76)-c4c(cc(O)c(O)c4O)C(=O)OC[C@H]3OC(O)[C@@H]2OC(=O)c2cc(O)c(O)c(O)c2-c2c1cc(O)c(O)c2O", "note": "(mixture of isomers) [punicalagin]", "values": [{"measurement": "inhibition of HSV-1 entry", "setting": "[19]", "value": "inhibit HSV-1 entry"}]}, {"smiles": "O=c1oc2c(O)c(O)cc3c(=O)oc4c(O)c(O)cc1c4c23", "note": "[ellagic acid]", "values": [{"measurement": "growth inhibition", "setting": "[10]", "value": "growth inhibitory"}]}, {"smiles": "O=C(O[C@H]1[C@@H]2OC(=O)c3cc(O)c(O)c(O)c3-c3c(cc(O)c(O)c3O)C(=O)OC[C@H]2OC(O)[C@@H]1OC(=O)c1cc(O)c(O)c(O)c1)c1cc(O)c(O)c(O)c1", "note": "(stereo partly shown) [Tellimagrandin I]", "values": [{"measurement": "anti-tumor properties", "setting": "[6]", "value": "anti-tumor properties"}]}]}
